Experimental data taken from patent US20130065818A1, “Arylamide Compounds And Compositions And Uses Thereof” (POLYMEDIX, priority 2006, published 2013).
In brackets after ≈: the same amount, converted by molar mass. Where two headings read alike, the source gives them in different places.

Key:
Haemophilus influenzae = assay: MIC, 25 ocular isolates, broth microdilution (Example 8); format: cell-based; settings: for MIC / MIC50 / MIC90: Haemophilus influenzae
Protocol: HTM (Haemophilus Test Medium) in tubes was inoculated with 25 ocular isolates of Haemophilus influenzae plus two controls (Staphylococcus aureus and E. coli) and incubated at 37° C. overnight. Additionally, Mueller-Hinton Broth in tubes was inoculated with two controls (Staphylococcus aureus and E. coli) and incubated at 37° C. overnight on a shaker set at 250 rpm.
On the day of testing, a 640 μg/ml (1280 μg/ml for Serratia marcescens and Pseudomonas aeruginosa) concentration was prepared from a 1% stock solution in 0.01% acetic acid, 0.2% BSA in polypropylene tubes.
Serial doubling dilutions in 0.01% acetic acid, 0.2% BSA in 96 well polypropylene plates, which are used as reservoirs for the inoculation of the test plates, were carried out to obtain serial dilutions of test agents at 10 times the required test concentrations: 640, 320, 160, 80, 40, 20, 10, 5, 2.5, 1.25, and 0.625 μg/ml (1280, 640, 320, 160, 80, 40, 20, 10, 5, 2.5, and 1.25 μg/ml for Serratia marcescens and Pseudomonas aeruginosa).
Ten μl of diluted 10×test agents was added to each well of one row of the 96 well polypropylene plates from column 2 to column 12 (column 1 is a control for bacteria alone, with no peptide). Test agent concentrations in columns 2-12 were as follows: 64, 32, 16, 8, 4, 2, 1, 0.5, 0.25, 0.125, and 0.0625 μg/ml (128, 64, 32, 16, 8, 4, 2, 1, 0.5, 0.25, and 0.125 μg/ml for Serratia marcescens and Pseudomonas aeruginosa). The same peptide was in each of the 8 rows. One plate contained dilutions of one test agent and 8 bacterial isolates.
On the day of testing, the overnight bacterial broth cultures of Haemophilus species was diluted in 5 ml of trypticase soy broth to yield turbidity equal to a 0.5 McFarland standard. The final inoculum for MIC testing for Haemophilus species was achieved by placing 0.1 ml of the turbidity adjusted sample to 5 ml of HTM medium.
Ninety μl of the bacterial suspensions was dispensed in each well from column 1 to column 12. Each bacterial isolate was placed in one row of a 96 well polypropylene plate containing the test agents. The plates were placed on shaker at 15 minutes at room temperature, and then incubated at 37° C. overnight. MICs were determined visually as the lowest concentration of drug that inhibits visible bacterial growth.

[1] = NZW rabbit keratitis model, clinical evaluation (Total Ocular Score)
Protocol: Fifteen rabbits were received from Myrtles' Rabbitry, Thompson Station, TN. The clinical isolate of fluoroquinolone-resistant, methicillin-resistant (MRSA) Staphylococcus aureus (K950) was subcultured on 5% sheep blood agar and incubated at 37° C. in 6% CO2 overnight. The next morning, the MRSA strain was suspended in sterile trypticase soy broth to a 0.5 McFarland Standard, containing approximately 5×10^8 cfu/ml of bacteria. The absorbance of the suspension was measured at 650 nm using a Beckman DU-70 spectrophotometer. OD readings of 0.07 corresponded to 5×10^8 cfu/ml of bacteria. This concentration was appropriately diluted in sterile trypticase soy broth to provide the inoculum of approximately 1,000 (1.0×10^3) cfu/eye in 25 μl. Colony counts were performed on the inoculum to determine the actual cfu inoculated. Following general anesthesia with ketamine and xylazine and topical anesthesia with proparacaine and prior to bacterial inoculation in the left eyes, 6 mm areas of the corneal epithelia was removed centrally with an Amoils epithelial scrubber. Nothing was done to the right eyes. The 15 rabbits were then inoculated intrastromally in both eyes with 25 μl of the bacterial dilution of approximately 10^3 cfu/eye of the bacteria. The bacterial inoculation of the left eyes was directly under the epithelial defect created by the Amoils epithelial scrubber. The epithelia were removed in the left corneas in order to determine whether this layer of the cornea is a barrier for Oligomer 2 penetration when compared to the right cornea with an intact epithelium. A colony count was done on the inoculum to determine the actual cfu inoculated. The rabbits were immediately treated with analgesia in the form of and intramuscular injection of ketoprofen, 1.5 mg/kg. After 4 hours, the 15 rabbits were divided into 4 treatment groups and one untreated control group sacrificed at the onset of therapy. Both eyes of each rabbit of the treatment groups were treated with one 37 μl drop of the coded solutions or control Saline or 1 drop of vancomycin from its dropper bottle. The Oligomer 2 concentrations were masked and labeled as 1 and 2. The masked concentrations were 1% Oligomer 2 and 0.5% Oligomer 2 but the specific concentrations of solutions were not known to the lab workers who carried out the experiment. The vancomycin and control (Tris-Buffered Saline) were not masked.
Treatment was scheduled for every 15 minutes for 5 hours (21 total doses). However, PMX-1 and PMX-2 were exhausted after the 19th dose. Therefore, the actual treatment was 15 minutes for 4.5 hours (19 total doses). The 3 rabbits in group V were sacrificed 4 hours PI and large 9.5 mm buttons were removed from the corneas. These were placed in 1 ml of PBS and kept on ice. The corneal buttons were homogenized for 25 seconds on ice using the motorized homogenizer. After homogenization, colony counts were done on the homogenates using 5% sheep blood agar plates to determine the amount of bacteria contained in the corneas at the onset of therapy. Following the completion of therapy, the eyes were examined for clinical signs of infection. One hour after the final treatment, the treated rabbits (Groups I-IV) were sacrificed and large 9.5 mm buttons were removed from the corneas. These were placed in 1 ml of PBS and kept on ice. The corneal buttons were homogenized for 25 seconds on ice using the motorized homogenizer. After homogenization, colony counts were performed on the homogenates using 5% sheep blood agar plates to determine the amount of bacteria contained in the corneas after treatment. The next morning, the plates were counted and the number of cfu/eye of Staphylococcus aureus was determined for each cornea.
Fifteen rabbits were received from Myrtles' Rabbitry, Thompson Station, TN.

[2] = 25 ocular isolates, HTM medium, read-out: Median MIC
[3] = isolate 10 B1378, read-out: MIC
[4] = isolate 11 B1313, read-out: MIC
[5] = isolate 12 B1477, read-out: MIC
[6] = isolate 13 B1286, read-out: MIC
[7] = isolate 14 B1282, read-out: MIC
[8] = isolate 15 B1291, read-out: MIC
[9] = isolate 16 B1280, read-out: MIC
[10] = isolate 17 B1279, read-out: MIC
[11] = isolate 18 B1260, read-out: MIC
[12] = isolate 19 B1238, read-out: MIC
[13] = isolate 20 B1209, read-out: MIC
[14] = isolate 21 B1249, read-out: MIC
[15] = isolate 22 B1248, read-out: MIC
[16] = isolate 23 B1244, read-out: MIC
[17] = isolate 24 B1419, read-out: MIC
[18] = isolate 25 B1222, read-out: MIC
[19] = n=25 isolates, >64 replaced with 128
[20] = n=25 isolates, >64 replaced with 128, read-out: Median MIC

For `N=C(N)NCCCCC(=O)Nc1cc(C(F)(F)F)cc(NC(=O)c2cnc(C(=O)Nc3cc(C(F)(F)F)cc(NC(=O)CCCCNC(=N)N)c3SCCN)cn2)c1SCCN` [Oligomer 5], which MIC (Haemophilus influenzae; [2]) is on record?
Its MIC is 16 µg/mL (≈ 17.4 µM).

And the MIC (Haemophilus influenzae; isolate 1 B1359, read-out: MIC)?
The MIC was > 64 µg/mL.

What about the MIC (Haemophilus influenzae; isolate 2 B1346, read-out: MIC) of the same molecule?
The MIC was > 64 µg/mL.

What about the MIC (Haemophilus influenzae; isolate 3 B1345, read-out: MIC) of the same molecule?
The MIC was > 64 µg/mL.

And the MIC (Haemophilus influenzae; isolate 4 B1343, read-out: MIC)?
Its MIC is > 64 µg/mL.

And the MIC (Haemophilus influenzae; isolate 5 B1338, read-out: MIC)?
Its MIC is 16 µg/mL (≈ 17.4 µM).

What about the MIC (Haemophilus influenzae; isolate 6 B1332, read-out: MIC) of the same molecule?
Its MIC is 64 µg/mL (≈ 69.8 µM).

And the MIC (Haemophilus influenzae; isolate 7 B1331, read-out: MIC)?
Its MIC is > 64 µg/mL.

And the MIC (Haemophilus influenzae; isolate 8 B1330, read-out: MIC)?
Its MIC is > 64 µg/mL.

And the MIC (Haemophilus influenzae; isolate 9 B1379, read-out: MIC)?
Its MIC is 8 µg/mL (≈ 8.72 µM).

And the MIC (Haemophilus influenzae; [3])?
The MIC was 4 µg/mL (≈ 4.36 µM).

What about the MIC (Haemophilus influenzae; [4]) of the same molecule?
Its MIC is 2 µg/mL (≈ 2.18 µM).

What about the MIC (Haemophilus influenzae; [5]) of the same molecule?
Its MIC is 4 µg/mL (≈ 4.36 µM).

And the MIC (Haemophilus influenzae; [6])?
The MIC was 2 µg/mL (≈ 2.18 µM).

What about the MIC (Haemophilus influenzae; [7]) of the same molecule?
Its MIC is 8 µg/mL (≈ 8.72 µM).

What about the MIC (Haemophilus influenzae; [8]) of the same molecule?
Its MIC is 16 µg/mL (≈ 17.4 µM).

And the MIC (Haemophilus influenzae; [9])?
The MIC was 16 µg/mL (≈ 17.4 µM).

And the MIC (Haemophilus influenzae; [10])?
The MIC was 64 µg/mL (≈ 69.8 µM).

And the MIC (Haemophilus influenzae; [11])?
The MIC was 16 µg/mL (≈ 17.4 µM).

And the MIC (Haemophilus influenzae; [12])?
The MIC was 8 µg/mL (≈ 8.72 µM).

What about the MIC (Haemophilus influenzae; [13]) of the same molecule?
Its MIC is 8 µg/mL (≈ 8.72 µM).

What about the MIC (Haemophilus influenzae; [14]) of the same molecule?
The MIC was 16 µg/mL (≈ 17.4 µM).

And the MIC (Haemophilus influenzae; [15])?
The MIC was 4 µg/mL (≈ 4.36 µM).

And the MIC (Haemophilus influenzae; [16])?
The MIC was 32 µg/mL (≈ 34.9 µM).

And the MIC (Haemophilus influenzae; [17])?
Its MIC is 32 µg/mL (≈ 34.9 µM).

What about the MIC (Haemophilus influenzae; [18]) of the same molecule?
Its MIC is > 64 µg/mL.

And the MIC50 (Haemophilus influenzae; [19])?
Its MIC50 is 16 µg/mL (≈ 17.4 µM).

What about the MIC90 (Haemophilus influenzae; [19]) of the same molecule?
The MIC90 was 128 µg/mL (≈ 140 µM).

What about the MIC (Haemophilus influenzae; [20]) of the same molecule?
Its MIC is 16 µg/mL (≈ 17.4 µM).

And the “Range of MICs” value (Haemophilus influenzae; [19])?
The value was 2 to 128 µg/mL.

With `N=C(N)NCCCCC(=O)Nc1cc(C(F)(F)F)cc(NC(=O)c2cc(C(=O)Nc3cc(C(F)(F)F)cc(NC(=O)CCCCNC(=N)N)c3SCCN)ncn2)c1SCCN` [Oligomer 2] as the molecule, how does the “Effect of removal of the epithelium on Total Ocular Scores” value ([1]; Ker-1, 1% and 0.5% Oligomer 2, compared with intact epithelia) read?
The value was “increased the Total Ocular Scores”.

What does the source list for `N=C(N)NCCCCC(=O)Nc1cc(C(F)(F)F)cc(NC(=O)c2cc(C(=O)Nc3cc(C(F)(F)F)cc(NC(=O)CCCCNC(=N)N)c3O[C@@H]3CCNC3)ncn2)c1O[C@@H]1CCNC1` [Oligomer 4]?
MIC (Haemophilus influenzae; [2]): 8 µg/mL (≈ 8.54 µM); MIC (Haemophilus influenzae; isolate 1 B1359, read-out: MIC): 8 µg/mL (≈ 8.54 µM); MIC (Haemophilus influenzae; isolate 2 B1346, read-out: MIC): 8 µg/mL (≈ 8.54 µM); MIC (Haemophilus influenzae; isolate 3 B1345, read-out: MIC): 8 µg/mL (≈ 8.54 µM); MIC (Haemophilus influenzae; isolate 4 B1343, read-out: MIC): 8 µg/mL (≈ 8.54 µM); MIC (Haemophilus influenzae; isolate 5 B1338, read-out: MIC): 4 µg/mL (≈ 4.27 µM); MIC (Haemophilus influenzae; isolate 6 B1332, read-out: MIC): 8 µg/mL (≈ 8.54 µM); MIC (Haemophilus influenzae; isolate 7 B1331, read-out: MIC): 8 µg/mL (≈ 8.54 µM); MIC (Haemophilus influenzae; isolate 8 B1330, read-out: MIC): 8 µg/mL (≈ 8.54 µM); MIC (Haemophilus influenzae; isolate 9 B1379, read-out: MIC): 16 µg/mL (≈ 17.1 µM); MIC (Haemophilus influenzae; [3]): 8 µg/mL (≈ 8.54 µM); MIC (Haemophilus influenzae; [4]): 4 µg/mL (≈ 4.27 µM); MIC (Haemophilus influenzae; [5]): 8 µg/mL (≈ 8.54 µM); MIC (Haemophilus influenzae; [6]): 8 µg/mL (≈ 8.54 µM); MIC (Haemophilus influenzae; [7]): 32 µg/mL (≈ 34.2 µM); MIC (Haemophilus influenzae; [8]): 8 µg/mL (≈ 8.54 µM); MIC (Haemophilus influenzae; [9]): 8 µg/mL (≈ 8.54 µM); MIC (Haemophilus influenzae; [10]): 16 µg/mL (≈ 17.1 µM); MIC (Haemophilus influenzae; [11]): 8 µg/mL (≈ 8.54 µM); MIC (Haemophilus influenzae; [12]): 2 µg/mL (≈ 2.13 µM); MIC (Haemophilus influenzae; [13]): 4 µg/mL (≈ 4.27 µM); MIC (Haemophilus influenzae; [14]): 4 µg/mL (≈ 4.27 µM); MIC (Haemophilus influenzae; [15]): 8 µg/mL (≈ 8.54 µM); MIC (Haemophilus influenzae; [16]): 8 µg/mL (≈ 8.54 µM); MIC (Haemophilus influenzae; [17]): 4 µg/mL (≈ 4.27 µM); MIC (Haemophilus influenzae; [18]): 8 µg/mL (≈ 8.54 µM); MIC50 (Haemophilus influenzae; [19]): 8 µg/mL (≈ 8.54 µM); MIC90 (Haemophilus influenzae; [19]): 8 µg/mL (≈ 8.54 µM); MIC (Haemophilus influenzae; [20]): 8 µg/mL (≈ 8.54 µM); Range of MICs (Haemophilus influenzae; [19]): 2 to 32 µg/mL

Which “Toxicity (Total Ocular Scores) compared with Saline treated eyes” value ([1]; rabbit, in vivo) does the source give for `CC(C)=CCCC(C)=CCCC(C)=CCO` [Farnesol] here?
Its value is “did not induce statistically greater toxicity”.
